Reference: publication PMC3975428, “Dimers of G-Protein Coupled Receptors as Versatile Storage and Response Units” (International Journal of Molecular Sciences, 2014)
No end group written: not given here.

B1: human neuropeptide Y Y2 receptor expressed in CHO cells (receptor, UniProt P49146 1-381, looked up)
chain: MGPIGAEADENQTVEEMKVEQYGPQTTPRGELVPDPEPELIDSTKLIEVQVVLILAYCSIILLGVIGNSLVIHVVIKFKSMRTVTNFFIANLAVADLLVNTLCLPFTLTYTLMGEWKMGPVLCHLVPYAQGLAVQVSTITLTVIALDRHRCIVYHLESKISKRISFLIIGLAWGISALLASPLAIFREYSLIEIIPDFEIVACTEKWPGEEKSIYGTVYSLSSLLILYVLPLGIISFSYTRIWSKLKNHVSPGAANDHYHQRRQKTTKMLVCVVVVFAVSWLPLHAFQLAVDIDSQVLDLKEYKLIFTVFHIIAMCSTFANPLLYGWMNSNYRKAFLSAFRCEQRLDAIHSEVSVTFKAKKNLEVRKNSGPNDSFTEATNV
notes: neuropeptide Y receptor type 2 (Y2), human cDNA in pcDNA 3.1+; Assayed in particulates (membranes) of the cells and in digitonin/cholate lysates of them; also called hY2 receptor; CHO-Y2; source: CHO-K1, stably expressed (cDNA in pcDNA 3.1+), postnuclear particulates, solubilised with digitonin and cholate

Assays:
[1] = system: 180 kDa heteropentamer (Y2 receptor dimer, G-protein trimer); assay: Nucleotide labeling / conversion of 180 kDa heteropentamer to 90 kDa Gi3α-receptor monomer; format: biochemical; conditions: 1–5 mM Mg^2+, micromolar GDP or GγS
Procedure: The receptors were labeled for 30 min at 25 °C in respective particulates (50 μg protein/assay), employing not more than 50 pM [^125I]-labeled agonist peptides (as stated in individual experiments). Higher molar inputs of agonist peptides would produce significant Gα activation within short exposures (e.g., [24, 53]). The basal assay buffer contained 0.2% proteinase-free bovine serum albumin, 20 mM hepes.NaOH (pH 7.4), 1 mM diisopropylfluorophosphate, 0.04% bacitracin, and 10 μg/mL each of proteinase inhibitors aprotinin, bestatin, chymostatin, leupeptin and pepstatin. Depending on experiment design, this was supplemented by 3 mM CaCl2 and 1 mM MgCl2, (buffer A) or by 1 mM Na EDTA, pH 7.4 (buffer B). The nucleotide site labeling at 200 pM [^35S]GγS was for 30 min at 28 °C after pre-activation for 30 min at 28 °C at 3 μM GDP in the basal buffer with 50 μM EDTA, 100 mM NaCl and 4 mM MgCl2, and without CaCl2 (buffer C). All subsequent operations were carried out at 0–5 °C. The assays were terminated by sedimentation for 10 min at 30,000× gmax, followed by surface wash of the pellets.
Rabbit kidney postmitochondrial particulates, rabbit piriform cortex and hypothalamic crude synaptosomes and CHO cell postnuclear particulates were prepared as described previously. After solubilization of particulates at 10 mM each of digitonin and sodium cholate in buffer A or B, the lysates were spun for 10 min at 1000× g to remove debris, and the supernatants sedimented for periods indicated in figure captions at 218,000× gmax through linear 5%–20% sucrose gradients (10 mL, made in buffer A). The gradients were divided by bottom dripping in 23 fractions of 0.45 mL. The sedimentation positions were calibrated with [^125I]-labeled bovine γ-globulin (158 kDa), human iron-saturated transferrin (75 kDa) and ovalbumin (44 kDa), and with colorized myosin (211 kDa), producing a linear relation of migration to molecular weight (R^2 > 0.99). […]

[2] = system: 180 kDa heteropentamer and 90 kDa monomer-Gi α of Y2 receptor; assay: Stability of agonist binding of 180 kDa and 90 kDa Y2 complexes to reagents; format: biochemical, rabbit; conditions: for sensitivity of 180 kDa labeled material to K^+: 0.3 M K^+ (as KCl or KI)
Text: Figure 6. Stability and affinity of agonist binding differs greatly for heteropentamer and monomer forms of the rabbit kidney Y2 receptor. (A) Y2 agonist attached to 180 kDa heteropentamer is recovered completely by 10% polyethyleneglycol (PEG) at 0.3 M K^+ (The data are averages of six gradients, ±1 S.E.).
The stability and affinity of agonist association with CHO-Y2 receptors could also be analyzed at the level of dimers and monomers by extraction and precipitation procedures coupled to competition binding assays (Figure 6).
The pellets were then counted in a scintillation counter.
(§1) Rabbit kidney postmitochondrial particulates, rabbit piriform cortex and hypothalamic crude synaptosomes and CHO cell postnuclear particulates were prepared as described previously. After solubilization of particulates at 10 mM each of digitonin and sodium cholate in buffer A or B, the lysates were spun for 10 min at 1000× g to remove debris, and the supernatants sedimented for periods indicated in figure captions at 218,000× gmax through linear 5%–20% sucrose gradients (10 mL, made in buffer A). The gradients were divided by bottom dripping in 23 fractions of 0.45 mL. The sedimentation positions were calibrated with [^125I]-labeled bovine γ-globulin (158 kDa), human iron-saturated transferrin (75 kDa) and ovalbumin (44 kDa), and with colorized myosin (211 kDa), producing a linear relation of migration to molecular weight (R^2 > 0.99).

[3] = system: Y2 receptor aggregates (anterior hypothalamus); assay: Y2 receptor aggregates, sedimentation after treatment, rabbit anterior hypothalamus particulates; format: biochemical; conditions: 10 μM, 15 min at 24 °C, 10%–30% gradient 6 h at 218,000× g
Procedure: (§2) Figure 5. […] Particulates from rabbit kidney (A) and anterior hypothalamus (B) were incubated with 20 μM GγS or 10 μM U73122 for 15 min at 24 °C, sedimented, resuspended, labeled with 50 pM [^125I]hPYY(3–36) for 15 min at 24 °C, resedimented, lysed at 10 mM each digitonin and cholate and sedimented through a 10%–30% linear sucrose gradient for 6 h at 218,000× g and 5 °C, followed by gradient fractionation and counting. TEXT PRINTED IN THE PICTURE: (A) GγS: Bottom count: 10.8% | (A) U73122: Bottom count: 25.4% | (B) GγS: Bottom count: 8.98 % | (B) U73122: Bottom count: 17.4 %
Rabbit kidney postmitochondrial particulates, rabbit piriform cortex and hypothalamic crude synaptosomes and CHO cell postnuclear particulates were prepared as described previously. After solubilization of particulates at 10 mM each of digitonin and sodium cholate in buffer A or B, the lysates were spun for 10 min at 1000× g to remove debris, and the supernatants sedimented for periods indicated in figure captions at 218,000× gmax through linear 5%–20% sucrose gradients (10 mL, made in buffer A). The gradients were divided by bottom dripping in 23 fractions of 0.45 mL. […]

[4] = system: aggregated Y2 receptor material (rabbit kidney and CHO-Y2 particulates); assay: Release of aggregated Y2 receptor material (bottom of 5%–20% gradients); format: biochemical; conditions: 10 μM, preliminary experiment
Procedure: More than 30% of the Y2 binding in rabbit kidney postmitochondrial particulates, and more than 20% in the CHO-Y2 postnuclear particulates sediments to the bottom of 5%–20% sucrose gradients over 18 h at 218,000× gmax, corresponding to weight in excess of 1000 kDa. A large part of this material sediments at 30,000× gmax over 10 min, and could be considered as aggregated. […] This preliminary experiment points to potential of such procedures in quantitation of effector-associated receptors at the level of dimers and monomers. There also is a promise of gaining more insight on the size and significance of receptor oligomers incorporating more than two receptor monomers.
as §1

[5] = system: Y2 receptor aggregates (rabbit kidney); assay: Y2 receptor aggregates, sedimentation after treatment, rabbit kidney particulates; format: biochemical; conditions: 15 min at 24 °C
Procedure: as §2, §1

[6] = molecular target: rabbit Y2 receptor, native (rabbit (endogenous in kidney cortex, hypothalamus, piriform cortex)); assay: radioligand binding; aliquots of gradient fractions of labeled rabbit kidney particulates precipitated with 10% polyethyleneglycol-8000 at 300 mM KCl or KI and 50 μg/mL bovine γ-globulin, 10 min at 0–4 °C
endothelin-1 receptor = conditions: cited from earlier work
Text: (§3) The classical view of agonist binding assumes an attachment that is readily terminated by dilution or competition by ligands of higher affinity, such as competitive antagonists. The weak agonist binding for small ligand receptors, such as catecholamine receptors, greatly diminishes analytical options. This has signally contributed to the analytical success of covalent proteinaceous tags. However, many GPCRs with peptidic agonists show agonist attachments that are stable at least at low temperatures, and slow to dissociate even at 37 °C. Such stable (“quasi-irreversible”) binding was found for ...

[7] = molecular target: rabbit Y2 receptor, native (rabbit (endogenous in kidney cortex, hypothalamus, piriform cortex)); assay: radioligand binding; competition of PYY(3–36) with [125I]PYY(3–36), rabbit kidney particulates, entire receptor complement
[8] = molecular target: rabbit Y2 receptor, native (rabbit (endogenous in kidney cortex, hypothalamus, piriform cortex)); assay: radioligand binding; competition of PYY(3–36), rabbit kidney particulates after extraction with 8 mM cholate at 0–5 °C (>90% dimeric residue), trypsin up to 3 μg/mL
neuromedin U receptors = conditions: cited from earlier work
Text: as §3

Y1 receptor = conditions: cited from earlier work
Text: as §3

Y2 receptor = conditions: cited from earlier work
Text: The classical view of agonist binding assumes an attachment that is readily terminated by dilution or competition by ligands of higher affinity, such as competitive antagonists. The weak agonist binding for small ligand receptors, such as catecholamine receptors, greatly diminishes analytical options.

Y4 receptor = conditions: cited from earlier work
Text: as §3

[9] = system: human calcitonin receptor; conditions: cited from earlier work
Text: as §3

[10] = system: rabbit kidney Y2 receptor; assay: PYY(3–36) binding to rabbit kidney Y2 receptor (heteropentamer and monomer forms)
Procedure: The receptors were labeled for 30 min at 25 °C in respective particulates (50 μg protein/assay), employing not more than 50 pM [^125I]-labeled agonist peptides (as stated in individual experiments). […] The basal assay buffer contained 0.2% proteinase-free bovine serum albumin, 20 mM hepes.NaOH (pH 7.4), 1 mM diisopropylfluorophosphate, 0.04% bacitracin, and 10 μg/mL each of proteinase inhibitors aprotinin, bestatin, chymostatin, leupeptin and pepstatin. Depending on experiment design, this was supplemented by 3 mM CaCl2 and 1 mM MgCl2, (buffer A) or by 1 mM Na EDTA, pH 7.4 (buffer B). The nucleotide site labeling at 200 pM [^35S]GγS was for 30 min at 28 °C after pre-activation for 30 min at 28 °C at 3 μM GDP in the basal buffer with 50 μM EDTA, 100 mM NaCl and 4 mM MgCl2, and without CaCl2 (buffer C). All subsequent operations were carried out at 0–5 °C. The assays were terminated by sedimentation for 10 min at 30,000× gmax, followed by surface wash of the pellets.

[11] = molecular target: the molecule itself; assay: sucrose density gradient centrifugation; CHO-Y2 particulates preincubated in assay buffer at 27 °C (1 h or 3 h) or in ice (3 h), labeled 20 min at 27 °C with [125I]PYY(3–36), solubilised at 10 mM each digitonin and cholate, 5%–20% sucrose gradients, 18 h at 5 °C, 218,000 x gmax
[12] = molecular target: B1; assay: radioligand binding; competition against [125I]PYY(3–36) at the hY2 receptor; conditions not given; conditions: one partner purified

Nc1nc2c(ncn2[C@@H]2O[C@H](COP(=O)(O)OP(=O)(O)O)[C@@H](O)[C@H]2O)c(=O)[nH]1 [GDP]
conversion of 180 kDa heteropentamer [1]: does convert to immunoprecipitable 90 kDa Gi3α-receptor monomer

[Cl-].[K+] [KCl]
effect on Y2 agonist bound to 90 kDa monomer-Gi α ([2]; 0.3 M KCl): detached | sensitivity of 180 kDa labeled material to K^+ [2]: not sensitive

[I-].[K+] [KI]
sensitivity of 180 kDa labeled material to K^+ [2]: not sensitive

COc1ccc2c(c1)CC[C@@H]1[C@@H]2CC[C@]2(C)[C@@H](NCCCCCCN3C(=O)C=CC3=O)CC[C@@H]12 [U73122]
Bottom count [3]: 17.4% | part of aggregated material released [4]: About a third | main form yielded from Y2 receptor aggregates ([5]; particulates from rabbit tissues (kidney and anterior hypothalamus), GγS 20 μM or U73122 10 μM): largely the heteropentamer | Bottom count ([5]; rabbit kidney, 10 μM, 10%–30% gradient 6 h at 218,000× g): 25.4%

C[C@H](CCC(=O)[O-])[C@H]1CC[C@H]2[C@@H]3[C@H](O)C[C@@H]4C[C@H](O)CC[C@]4(C)[C@H]3C[C@H](O)[C@]12C.[Na+] [sodium cholate]
effect on Y2 agonist bound to 90 kDa monomer-Gi α ([2]; 8 mM cholate at 0–5 °C): detached | effect of sodium cholate on activated monomers ([2]; rabbit kidney particulates): removes activated monomers

[125I]human peptide YY(3–36) (from UniProt P10082 31-64)
percent of the 180 kDa labeled material precipitated at 10% PEG [6]: > 80%

endothelin
stability of agonist binding (endothelin-1 receptor): quasi-irreversible

human peptide YY(3–36) (from UniProt P10082 31-64)
IC50 [7]: 0.2 to 0.5 nM | IC50 [8]: 0.01 nM

neuromedin U (FRVDEEFQSPFASQSRGYFLFRPRN; ends and bridges not checked; UniProt P48645 142-166, looked up) [agonist at its receptors]
stability of agonist binding (neuromedin U receptors): quasi-irreversible

neuropeptide Y [NPY]
stability of agonist binding (Y1 receptor): quasi-irreversible | stability of agonist binding (Y2 receptor): quasi-irreversible

pancreatic polypeptide
stability of agonist binding (Y4 receptor): quasi-irreversible

salmon calcitonin
stability of agonist binding [9]: quasi-irreversible

trypsin
Bmax for the dimeric Y2 in the cholate residue ([10]; above 0.3 μg trypsin): increases significantly | effect on affinity of PYY(3–36) binding to dimeric residue ([10]; trypsin at up to 3 μg/mL, cholate residue): unaffected | stability of heteropentamers to trypsin ([2]; rabbit kidney particulates): considerable stability

B1
stoichiometry N [11]: 2

B2: NPY(22–36) (peptide, UniProt P01303 50-64, looked up)
peptide: SALRHYINLITRQRY
notes: neuropeptide Y, residues 22-36; also called neuropeptide Y(22–36)
Kd [12]: 6.2 ± 1.2 nM
